The target of one assay is Focal adhesion kinase 1 (Homo sapiens, UniProt Q05397). The experiment in a line: (§1) Biochemical Assay: To measure inhibitory activity of FAK/PYK2 inhibitors, compounds were first prepare as a 1 mM stock in 100% DMSO and 3-fold serial dilution was performed in a 96-well plate (Corning, 3897) to generate 12 different concentration of 100× stock. A 5 μl of 100× stock of each concentration was added to wells containing 95 μl of 1× reaction buffer (40 mM Tris, pH7.5, […], 1 mM DTT and 1 mM CHAPS) to generate 5× stock. Then 2 μl of 5× stock of each concentration was added to a 384 wells-OptiPlate (PerkinElmer, 6007299). For FAK, 4 μl of 2.5 nM FAK, 1 μl of 8 μg/μl BSA and 1.5 μl of 666 nM ULight-poly Glu, Ala, Tyr (1:1:1) peptide substrate, prepared in above reaction buffer, were added to each well. The reaction was initiated by adding 1.5 μl of 33.3 μM ATP. The reaction was allowed to proceed for 120 min before being quenched with 5 μl of 40 mM EDTA stop buffer prepared in 1×LANCE detection buffer (PerkinElmer, CR97-100). For PYK2, 5 μl of 2 nM PYK2 and 1.5 μl of 666 nM ULight-poly Glu, Ala, Tyr (1:1:1) peptide substrate, prepared in above reaction buffer, were added to each well. The reaction was initiated by adding 1.5 μl of 46.6 μM ATP. The reaction was allowed to proceed for 40 min before being quenched with 5 μl of 40 mM EDTA stop buffer prepared in 1×LANCE detection buffer (PerkinElmer, CR97-100). Upon quenching of the reaction, 5 μl of 8 nM anti-phosphotyrosine antibody was added to each well and incubated for 60 minutes. (Time-resolved FRET reads energy transfer from a long-lived donor to a nearby acceptor.)
Sequence of Focal adhesion kinase 1 (Q05397 whole entry): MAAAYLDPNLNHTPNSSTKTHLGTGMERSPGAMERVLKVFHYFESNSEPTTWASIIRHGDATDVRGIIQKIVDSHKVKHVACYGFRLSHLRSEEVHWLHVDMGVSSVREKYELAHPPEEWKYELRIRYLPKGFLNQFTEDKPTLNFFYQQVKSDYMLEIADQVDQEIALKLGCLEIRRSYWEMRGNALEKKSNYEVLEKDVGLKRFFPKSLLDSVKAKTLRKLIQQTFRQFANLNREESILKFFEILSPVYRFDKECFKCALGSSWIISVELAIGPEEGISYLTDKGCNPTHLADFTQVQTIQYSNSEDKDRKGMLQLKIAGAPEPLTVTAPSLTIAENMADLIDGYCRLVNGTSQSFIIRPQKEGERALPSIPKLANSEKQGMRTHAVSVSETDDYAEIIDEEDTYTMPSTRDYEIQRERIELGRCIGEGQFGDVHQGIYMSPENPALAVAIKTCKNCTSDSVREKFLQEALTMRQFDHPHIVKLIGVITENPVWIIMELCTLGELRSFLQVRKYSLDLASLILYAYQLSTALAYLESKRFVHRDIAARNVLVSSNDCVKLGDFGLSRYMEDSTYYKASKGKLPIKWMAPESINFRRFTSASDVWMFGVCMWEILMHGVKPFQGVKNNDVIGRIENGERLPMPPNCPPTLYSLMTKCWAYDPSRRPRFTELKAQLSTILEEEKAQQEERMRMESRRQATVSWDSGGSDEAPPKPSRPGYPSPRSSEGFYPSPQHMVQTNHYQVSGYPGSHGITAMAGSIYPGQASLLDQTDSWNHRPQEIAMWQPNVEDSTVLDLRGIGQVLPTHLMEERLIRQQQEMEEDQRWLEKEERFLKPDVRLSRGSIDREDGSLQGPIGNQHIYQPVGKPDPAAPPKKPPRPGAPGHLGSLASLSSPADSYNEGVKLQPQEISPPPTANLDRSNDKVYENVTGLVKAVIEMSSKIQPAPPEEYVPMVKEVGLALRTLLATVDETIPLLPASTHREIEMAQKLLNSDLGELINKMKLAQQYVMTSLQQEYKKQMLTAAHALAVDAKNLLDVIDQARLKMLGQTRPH

Assay [1] has as its target Protein-tyrosine kinase 2-beta (Homo sapiens, UniProt Q14289). The description is as §1.

Sequence of Protein-tyrosine kinase 2-beta (Q14289 whole entry): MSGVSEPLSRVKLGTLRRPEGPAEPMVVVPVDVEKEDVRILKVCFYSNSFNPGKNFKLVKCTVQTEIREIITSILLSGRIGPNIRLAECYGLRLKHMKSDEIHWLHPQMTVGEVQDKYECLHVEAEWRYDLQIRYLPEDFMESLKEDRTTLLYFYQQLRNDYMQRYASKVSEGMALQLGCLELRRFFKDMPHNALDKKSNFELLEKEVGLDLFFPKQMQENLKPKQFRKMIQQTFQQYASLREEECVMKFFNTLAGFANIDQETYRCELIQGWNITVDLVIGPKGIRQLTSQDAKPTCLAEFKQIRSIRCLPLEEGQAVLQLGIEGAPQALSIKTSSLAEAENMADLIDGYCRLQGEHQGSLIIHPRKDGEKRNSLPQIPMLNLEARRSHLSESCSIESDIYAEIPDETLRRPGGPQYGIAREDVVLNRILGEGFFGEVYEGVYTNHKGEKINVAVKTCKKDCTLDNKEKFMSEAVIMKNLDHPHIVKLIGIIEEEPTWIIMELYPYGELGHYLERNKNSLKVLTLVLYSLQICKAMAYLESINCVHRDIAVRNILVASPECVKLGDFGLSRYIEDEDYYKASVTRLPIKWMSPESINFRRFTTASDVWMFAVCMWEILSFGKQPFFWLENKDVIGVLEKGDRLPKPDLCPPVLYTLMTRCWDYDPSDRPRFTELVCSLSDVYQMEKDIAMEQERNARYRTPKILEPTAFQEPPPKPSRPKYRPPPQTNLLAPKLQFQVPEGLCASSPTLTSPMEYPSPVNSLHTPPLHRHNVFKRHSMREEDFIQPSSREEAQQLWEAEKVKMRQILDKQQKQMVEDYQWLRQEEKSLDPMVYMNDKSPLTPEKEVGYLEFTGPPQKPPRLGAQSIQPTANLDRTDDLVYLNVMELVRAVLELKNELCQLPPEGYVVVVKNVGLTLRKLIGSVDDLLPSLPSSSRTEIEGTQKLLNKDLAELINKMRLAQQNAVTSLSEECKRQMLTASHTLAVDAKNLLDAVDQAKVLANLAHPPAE

A word on the IC50: it is the concentration at which inhibition is half-maximal. With `CCOc1cc(N2CCOCC2)ccc1Nc1nc2c(c(Nc3ccccc3S(=O)(=O)NC(C)C)n1)CCN2`, the IC50 at Focal adhesion kinase 1 was below 50 nM; in assay [1], below 100 nM.
On the same counts, the results for `COc1cc(N2CCOCC2)ccc1Nc1nc2c(c(Nc3ccc(F)c(F)c3)n1)CCN2` are above 1000 nM and below 1000 nM.
On the same counts, the results for `COc1cc(N2CCCCC2=O)ccc1Nc1nc2c(c(Nc3ccccc3S(=O)(=O)NC(C)C)n1)CCN2` are below 20 nM and below 20 nM.
In the case of `CCC(C)NS(=O)(=O)c1ccccc1Nc1nc(Nc2ccc(N3CCOCC3)cc2OC)nc2c1C1(CC1)CN2` (stereo unspecified), the IC50 (on Focal adhesion kinase 1; in assay [1]) was below 20 nM each time.
As to `CC(C)NS(=O)(=O)c1ccccc1Nc1nc(Nc2ccc(C(C)N3CCCCC3)cc2)nc2c1CCN2` (stereo unspecified), the IC50 (on Focal adhesion kinase 1; in assay [1]) was below 20 nM in each case.
Consider `COc1cc(N2CCOCC2)ccc1Nc1nc2c(c(Nc3ccccc3CCO)n1)CCN2`, for which the IC50 (at Focal adhesion kinase 1; in assay [1]) was below 1000 nM each time.
Regarding `COc1cc(N2C(=O)CCc3ccccc32)ccc1Nc1nc2c(c(Nc3ccccc3S(=O)(=O)NC(C)C)n1)CCN2`, the IC50 (against Focal adhesion kinase 1; in assay [1]) was below 500 nM in each case.
As for `COc1cc(N2CCC(N3CCOCC3)CC2)ccc1Nc1nc2c(c(Nc3ccccc3S(=O)(=O)NC(C)C)n1)CCN2`, the IC50 (on Focal adhesion kinase 1; in assay [1]) was below 20 nM in each case.
